These results are taken from patent EP4458412A1, “NOVEL PHOSPHOANTIGEN PRODRUG COMPOUND AND USE THEREOF” (University College Cardiff Consultants, Ltd., priority 2023, dated 2024).

The structures appear in SMILES notation. A value given as a limit tells only on which side of the number the result lay.

One data set relates to human Vγ9/Vδ2^+ T cells. Put plainly: Activation of human Vγ9/Vδ2+ T cells in PBMCs (CD69/CD25 upregulation, flow cytometry). It is filed as cell-based. The note with it: for EC50: PBMCs incubated overnight, CD69+ CD25+ Vγ9/Vδ2 T cells, 10pM to 100µM; for activation of Vγ9/Vδ2 T cells at the highest concentration studied: 100 µM compared with 10 µM; for activation of Vγ9/Vδ2 T cells (rank in words): across the two series 9a-d and 14a-d, in vitro. As for the experimental part:
General: Healthy donor peripheral blood mononuclear cells (PBMCs) were harvested as described in Morita et al. 2007. In particular, blood was obtained in the presence of a mixture of heparin and ethylene diamino tetra acetic acid (EDTA) as anticoagulants (2 U/ml heparin, 1.5 mM EDTA) from consented healthy donors (approved by the NRES Committee West Midlands-Solihull Ethical Board; REC reference 14/WM/1254). Blood was then layered on a density gradient medium, lymphoprep (Stem Cell Technologies) and Peripheral blood mononuclear cells (PBMCs) were purified by gradient centrifugation. The cells were washed 2 times with Phosphate Buffered Saline (PBS), then resuspended in RPMI-1640 media supplemented with 2 mM L-glutamine, 25 mM HEPES, 1% sodium pyruvate, 50 µg/ml penicillin/streptomycin (Invitrogen) and 10% foetal calf serum.
(§1) To assess the activation of Vy9/V62 T cells, PBMCs were seeded into U-bottom tissue culture-treated 96-well plates at a cell density of 500,000 cells per well. […] The cells were incubated at 37°C/5%CO2 overnight, and stained by flow cytometry for the following markers: viability (Zombie Aqua 1:400), CD3 (BV421 1:100), CD8 (BV650 1:200), Vγ9 (PEcy5 1:400), V62 (APC 1:200), CD69 (PE 1:25), CD25 (FITC 1:100). The samples were acquired via LSRFortessa X20 (BD Biosciences), and the data obtained were analysed using FlowJo v10 and GraphPad Prism v9 software.
Peripheral blood γδ T-cells lack appreciable levels of surface CD69 or CD25 under steady state conditions, but T-cell receptor (TCR) stimulation upregulates both T-cell activation markers within 72 hours. PAg responsive Vy9/V62 T-cells were then distinguished by TCR Yγ9 and V62 expression and assessed for the upregulation CD69 and CD25. […]

The test system of data set [1] is T24 urinary bladder carcinoma cells. Put plainly: Europium-based (DELFIA) cytotoxicity assay: lysis of drug-sensitized T24 cells by expanded Vγ9/Vδ2 T cells. The format is cell-based, Human. The note with it: 10 nM ProPAgen, 2 h pretreatment, effector:target 80:1, compared with 10 µM Zoledronate. As for the experimental part: Human T24 urinary bladder carcinoma cell lines were cultured in PBS for 2 h at 37°C/5% CO2 without ProPAgens (i.e. untreated), containing 10 µM zoledronate (i.e. the clinically used small molecule drug) or the indicated HMBP phosphonodiamidate ProPAgens of the present invention, i.e. ProPAgen 9d at a concentration of 10nM, and ProPAgen 14d at a concentration of 10nM. A positive control for cell death (target cells incubated with 10% v/v DELFIA lysis buffer) and media-only treated control (no drug) were also included. The cells were then washed 3 times at 600 x g for 5 min in PBS to remove any excess drug and incubated in PBS with BATDA labelling agent (used at 1µl per ml) for 20 min at 37°C as before.
In the meantime, ex vivo expanded Vy9/V62 T cells, i.e. Vy9/V62 T cells that have been expanded with 5µM Zoledronate and 100U/ml IL2 over a period of 14 days, were thawed, counted and resuspended to a cell concentration of 4 x 10^6 cells/ml. […]
The level of killing of T24 cells was then measured via time-resolved fluorescence using a PHERAstar microplate reader (BMG Labtech). Specific lysis (% killing of T24 cells) was calculated as follows: [(experimental release - spontaneous release)/(maximal release - spontaneous release)] x 100. The data were processed and analyzed using Microsoft Excel and GraphPad Prism v9 software. […]

The test system of the next data set is CD8^+ T cells. Put plainly: Activation of CD8+ T cells in PBMC overnight cultures (CD69/CD25, flow cytometry). The format is cell-based, human. The note with it: for concentration without CD8+ T cell activation relative to Vγ9/Vδ2 T-cell activation EC50: 1 µM versus EC50; for activation of CD8+ T cells: up to a concentration of 1 µM, overnight PBMC culture. As for the experimental part: as §1
Like peripheral blood γδ T-cells, peripheral blood CD8^+ T-cells lack appreciable levels of surface CD69 or CD25 under steady state conditions, but upon T-cell receptor (TCR) stimulation upregulate both T-cell activation markers within 72 hours. PAg responsive CD8 T-cells were then distinguished by TCR CD8 expression and assessed for the upregulation CD69 and CD25.
On the technique in general: Flow cytometry measures light scatter and fluorescence of single cells or particles in a stream.

The nature of data set [2]: Human serum stability monitored by 31P NMR. The format is in vitro ADME. The note with it: 37 °C, 7.5 h. As for the experimental part:
This experiment was carried out as previously reported in Mehellou et al. 2020 and Slusarczyk, M.; Ferrari, V.; Serpi, M.; Gönczy, B.; Balzarini, J.; McGuigan, C; Symmetrical Diamidates as a Class of Phosphate Prodrugs to Deliver the 5'-Monophosphate Forms of Anticancer Nucleoside Analogues; ChemMedChem 2018, 13, 2305-2316 (hereinafter "McGuigan et al. 2018"), as well as Slusarczyk, M.; Lopez, M. H.; Balzarini, J.; Mason, M.; Jiang, W. G.; Blagden, S.; Thompson, E.; Ghazaly, E.; McGuigan, C. Application of ProTide technology to gemcitabine: a successful approach to overcome the key cancer resistance mechanisms leads to a new agent (NUC-1031) in clinical development. J. Med. Chem. 2014, 57, 1531-1542 (hereinafter "McGuigan et al. 2014").
Briefly, 5.0 mg of the phosphonodiamidate ProPAgen 9b was dissolved in a mixture of 0.05 mL of DMSO and 0.15 mL D2O. After recording the first ^31P NMR data, 0.3 mL human serum (Merck Life Sciences) was added and monitored by NMR. The experiment was run on NMR ^31P mode and scanned every half an hour for 7.5 h. The incubation temperature was 37°C. Recorded data were processed and analysed with Bruker Topspin 2.1 software.
ProPAgen 9b was incubated with human serum at 37 °C for 7.5 h and monitored by ^31P NMR spectroscopy. […]

The next data set addresses T1, carboxypeptidase Y (Saccharomyces cerevisiae, UniProt P00729).
T1 sequence (P00729 112-532): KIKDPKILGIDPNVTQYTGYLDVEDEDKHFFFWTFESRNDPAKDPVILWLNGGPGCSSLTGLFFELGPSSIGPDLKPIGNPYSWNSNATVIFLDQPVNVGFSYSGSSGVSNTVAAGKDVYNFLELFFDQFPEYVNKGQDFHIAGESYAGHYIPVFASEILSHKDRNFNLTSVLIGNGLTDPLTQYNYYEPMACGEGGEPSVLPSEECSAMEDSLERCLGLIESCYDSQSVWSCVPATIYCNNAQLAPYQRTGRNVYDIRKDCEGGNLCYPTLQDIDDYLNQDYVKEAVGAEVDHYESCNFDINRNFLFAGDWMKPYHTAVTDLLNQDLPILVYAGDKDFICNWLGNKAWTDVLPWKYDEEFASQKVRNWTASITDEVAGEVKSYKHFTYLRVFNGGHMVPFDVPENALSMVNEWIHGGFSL
As to the kind of experiment: Carboxypeptidase Y assay (in vitro metabolism, 31P NMR). The format is in vitro ADME. As to conditions: recombinant carboxypeptidase Y, 37 °C. As for the experimental part:
The in vitro metabolism of the phosphonodiamidate ProPAgens according to the present invention was investigated in a carboxypeptidase Y assay.
The carboxypeptidase Y assay was carried out as previously reported by Mehellou et al. 2020, McGuigan et al. 2018 and McGuigan et al. 2014. 5.0 mg of the phosphonodiamidate ProPAgen 9b was dissolved in 0.2 mL of acetone, and 0.4 mL of Trizma buffer (pH 7.4) was added followed by 0.5 mg carboxypeptidase Y in 0.2 ml Trizma buffer (pH 7.4). The phosphonodiamidate ProPAgen 9b was incubated with recombinant carboxypeptidase Y at 37 °C and monitored the reaction by ^31P-NMR for 12 h. Recorded data were processed and analysed with Bruker Topspin 2.1 software.

Another data set deals with Vγ9/Vδ2 T cells. As to conditions: previously reported potencies (Hsiao 2014; Reichenberg 2003); cited from earlier work.

What is called EC50 is the concentration needed to bring the measured effect to its halfway point. For `C/C(=C\CCP(=O)(N[C@@H](C)C(=O)OC(C)(C)C)N[C@@H](C)C(=O)OC(C)(C)C)CO` [ProPAgen 14c, Di-tert-butyl 2,2'-((((E)-5-hydroxy-4-methylpent-3-en-1-yl)phosphoryl)bis(az-ane-diyl))-(2S,2'S)-dipropionate], the EC50 in the data set with human Vγ9/Vδ2^+ T cells was determined as 6100 nM.
Turning to `C/C(=C\CCP(=O)(N[C@@H](C)C(=O)OCc1ccccc1)N[C@@H](C)C(=O)OCc1ccccc1)CO` [ProPAgen 14d, Dibenzyl 2,2'-((((E)-5-hydroxy-4-methylpent-3-en-1-yl)phosphoryl)bis(azane-diyl))-(2S, 2'S)-dipropionate], in the data set on human Vγ9/Vδ2^+ T cells, the “activation of Vγ9/Vδ2 T cells at the highest concentration studied” value is “less than that achieved with 10 µM” and the “activation of Vγ9/Vδ2 T cells (rank in words)” value is “most potent activation”. Further, the “sensitizing effects (specific lysis of T24 cells by Vγ9/Vδ2 T-cells)” value in data set [1] is recorded as “much more potent”. In addition, in the data set on CD8^+ T cells, the “concentration without CD8+ T cell activation relative to Vγ9/Vδ2 T-cell activation EC50” value was “approx. 100,000 times” and the “activation of CD8+ T cells” value is “did not exhibit activation”.
The like results for `C/C(=C\CC(F)(F)P(=O)(N[C@@H](C)C(=O)OCc1ccccc1)N[C@@H](C)C(=O)OCc1ccccc1)CO` [ProPAgen 9d, Dibenzyl 2,2'-((((E)-1,1-difluoro-5-hydroxy-4-methylpent-3-en-1-yl)phosphoryl)-bis(azanediyl))(2S,2'S)-dipropionate] were, in that order, “less than that achieved with 10 µM”, “most potent activation”, “much more potent”, “approx. 100,000 times” and “did not exhibit activation”.
One may read the half-life as the time needed for the level to fall by half in the phase considered. `C/C(=C\CC(F)(F)P(=O)(N[C@@H](C)C(=O)OC(C)C)N[C@@H](C)C(=O)OC(C)C)CO` [ProPAgen 9b, Diisopropyl 2,2'-((((E)-1,1-difluoro-5-hydroxy-4-methylpent-3-en-1-yl)phosphor-yl)bis-(azanediyl))(2S,2'S)-dipropionate]: the response in the data set on human Vγ9/Vδ2^+ T cells (Homo sapiens, T-cell) was half-maximal at 167 nM (EC50). Besides, in data set [2], the half-life is > 7.5 h. Also, at carboxypeptidase Y (Trizma buffer pH 7.4), the “time to appearance of three new 31P NMR peaks (metabolite 17)” value is listed as ≤ 0.5 h. Also, the “31P NMR peaks of parent prodrug after incubation” value at carboxypeptidase Y (within 6.5 h) is given as “those of 9b were the minor”.
`C/C(=C\CCP(=O)(N[C@@H](C)C(=O)OC(C)C)N[C@@H](C)C(=O)OC(C)C)CO` [ProPAgen 14b, Diisopropyl 2,2'-((((E)-5-hydroxy-4-methylpent-3-en-1-yl)phosphoryl)bis(az-anediyl))-(2S,2'S)-dipropionate]: the 50% effective concentration (EC50) in the data set on human Vγ9/Vδ2^+ T cells is 87 nM.
As for `O=P(O)(O)C(O)(Cn1ccnc1)P(=O)(O)O` [zoledronate, reference compound], the EC50 was 18500 nM in the data set with human Vγ9/Vδ2^+ T cells (Homo sapiens, T-cell) and 3 to 500 nM with Vγ9/Vδ2 T cells.
As for `C/C(=C\COP(=O)(O)OP(=O)(O)O)CO` [HMBPP, (E)-4-hydroxy-3-methylbut-2-enyl pyrophosphate, reference compound], the EC50 was 181 nM with human Vγ9/Vδ2^+ T cells and 0.06 to 0.5 nM in the data set on Vγ9/Vδ2 T cells.
`COC(=O)[C@H](C)NP(=O)(N[C@@H](C)C(=O)OC)C(F)(F)C/C=C(\C)CO` [ProPAgen 9a, Dimethyl 2,2'-((((E)-1,1-difluoro-5-hydroxy-4-methylpent-3-en-1-yl)phosphor-yl)bis(azanediyl))(2S,2'S)-dipropionate] displayed an EC50 with human Vγ9/Vδ2^+ T cells of 191 nM.
On the same count and under the same terms, the figure for `C/C(=C\CC(F)(F)P(=O)(N[C@@H](C)C(=O)OC(C)(C)C)N[C@@H](C)C(=O)OC(C)(C)C)CO` [ProPAgen 9c, Di-tert-butyl 2,2'-((((E)-1,1-difluoro-5-hydroxy-4-methylpent-3-en-1-yl)phosphoryl)bis(azanediyl))(2S,2'S)-dipropionate] is 1500 nM.
